# Source: PMC5577610, “Nine New Triterpene Glycosides, Magnumosides A1–A4, B1, B2, C1, C2 and C4, from the Vietnamese Sea Cucumber Neothyonidium (=Massinium) magnum: Structures and Activities against Tumor Cells Independently and in Synergy with Radioactive Irradiation” (Marine Drugs, 2017)
# Experiments:
# [1] = test system: Lewis lung carcinoma cell xenograft tumor; parameters: method as in PMID 25738799; details: C57BL/6 mice bearing a Lewis lung carcinoma cell xenograft tumor; cited from earlier work
# [2] = test system: human lung carcinoma A549 cells; parameters: method as in PMID 25738799; details: cited from earlier work
# [3] = test system: human lung carcinoma H1299 cells; parameters: method as in PMID 25738799; details: cited from earlier work
# mouse spleenocytes = assay: Cytotoxic activity (MTT) against mouse spleenocytes; format: cell-based; details: CD-1 mouse spleenocytes, MTT, incubated over night
# Procedure: (§1) The spleenocytes from CD-1 line mice were used. The spleen was isolated from mice and homogenized. The spleenocytes were washed thrice and resuspended with RPMI-1640 medium contained gentamicine 8 μg/mL (Biolot, Saint Petersburg, Russia). The museum tetraploid strain of murine ascites Ehrlich carcinoma cells from the All-Russian cancer center RAMS (Moscow, Russia) was used. The cells of the ascites Ehrlich carcinoma were separated from ascites, which were collected on day 7 after inoculation in mouse CD-1 line. The cells were washed of ascites thrice and then resuspended in liquid media DMEM with L-Glutamine (Biolot, Saint Petersburg, Russia).
# (§2) The solutions of tested substances in different concentrations (20 µL) and cell suspension (200 µL) were added in wells of 96-well plate and incubated over night at 37 °C and 5% CO2. After incubation the cells were sedimented by centrifugation, 200 µL of medium from each well were collected and 100 µL of pure medium were added. Then 10 µL of MTT solution […] (Sigma, St. Louis, MO, USA) were added in each well. Plate was incubated 4 h, after that 100 µL SDS-HCl were added to each well and plate was incubated at 37 °C 4–18 h. Optical density was measured at 570 nm and 630–690 nm. The activity of the substances was calculated as the ratio of the dead cells to general cells amount (ED50). Typicoside A1 [28] and cucumarioside A2-2 [11] were used as positive controls.
# [4] = test system: ascites form of mouse Ehrlich carcinoma cells; assay: Cytotoxic activity (MTT) against the ascites form of mouse Ehrlich carcinoma cells; format: cell-based; details: ascites form of mouse Ehrlich carcinoma cells, MTT, incubated over night
# Procedure: as §1, §2
# mouse erythrocytes = format: cell-based; details: CD-1 mouse erythrocytes, 1 h at 37 °C; dose causing 50% of hemolysis
# Procedure: The erythrocytes were washed thrice with 0.9% NaCl, centrifuged (450 g) on a centrifuge […] (Heraeus, Hanau, Germany) for 5 min followed by re-suspending in phosphate-buffered saline (PBS), pH 7.2-7.4. […] ED50 was calculated using SigmaPlot 3.02 software (Jandel Scientific, San Rafael, CA, USA). […] The erythrocyte suspension in phosphate-buffered saline, pH 7.2-7.4 (PBS) with 20 μL of the solvent without a tested compound was used as negative control.
SMILES,Efficacy of radiation therapy (in words) [1],Sensitization to γ-radiation (in words) [2],Sensitization to γ-radiation (in words) [3],IC50 (mouse spleenocytes) [nM],IC50 [4] [nM],"Hemolytic Activity, ED50 (mouse erythrocytes) [μM/mL]"
CC(C)=CCC[C@](C)(O)[C@H]1CC[C@]2(C)[C@@H]1[C@H](O)C[C@@H]1[C@@]3(C)CC[C@H](O[C@@H]4O[C@H](CO)[C@@H](O)[C@H](O)[C@H]4O[C@@H]4O[C@H](CO)[C@@H](O)[C@H](O)[C@H]4O)C(C)(C)[C@@H]3CC[C@]12C [ginsenoside Rg3],significantly enhanced the efficacy of radiation therapy,sensitized,sensitized,–,–,–
"C=C(C)CCCC1(C)OC(=O)C23CCC4C(=CCC5C(C)(C)C(OC6OCC(OS(=O)(=O)[O-])C(O)C6OC6OC(C)C(OC7OC(CO)C(O)C(OC8OC(CO)C(O)C(OC)C8O)C7O)C(O)C6OC6OCC(O)C(O)C6O)CCC45C)C2(C)CC(=O)C13.[Na+] (stereo not drawn) [Cucumarioside A2-2, reference compound]",–,–,–,1210 ± 20,1390 ± 15,0.82 ± 0.02
